Test results as given in ChEMBL document CHEMBL3507680, “University of Dundee, Gates Library screen for HepG2 cell viability”.

Experiment: Human HepG2 cell viability assay in 384 well format
Assay type: toxicity, cell-based
Design: dose 125 nL, time 70.5 hour; cytotoxicity at 70.5 h: concentration not given beside the values
Details: HepG2 cells, read-out: Inhibition

| SMILES | cytotoxicity at 70.5 h [%] |
| --- | --- |
| O=C1NCCN1C1CCN(Cc2nc(-c3ccsc3)no2)CC1 | 32.4 |
| CC(C)C(Sc1nccn1C1CC1)C(=O)NCc1cccnc1 (stereo unspecified) | 16 |
| Cc1ccc(C(C)NC(=O)CNCCn2cccn2)cc1C (stereo unspecified) | -10.7 |
| CCCc1nc(CN2CCCCC2Cn2cncn2)cs1 (stereo unspecified) | -7.91 |
| CC(C)C(Sc1nncn1C1CC1)C(=O)NCc1cccnc1 (stereo unspecified) | -2.46 |
| CCc1nccn1C1CCCN(C(=O)c2ccc3c(c2)OCCO3)C1 (stereo unspecified) | -9.17 |
| CCc1nccn1C1CCCN(C(=O)c2ccc(OC)c(OC)c2)C1 (stereo unspecified) | 9.92 |
| Cc1cc(C(=O)N2CCCC(C)C2)ccc1NCc1nc(C2CC2)no1 (stereo unspecified) | -13.1 |
| Cc1nc(C)n(CC2CCCN2Cc2ncc(-c3ccccc3)o2)n1 (stereo unspecified) | -2.3 |
| CC(C)c1nc(CN(C)C2CCCN(c3cccnn3)C2)no1 (stereo unspecified) | -5.62 |
| CCOCCN1CCN(Cc2coc(-c3cccc(F)c3)n2)CC1 | -1.54 |
| Cc1nn(C)c(N(C)C)c1CNCC(O)c1ccccc1F (stereo unspecified) | -15.4 |
| O=C(NCC1CCOC1)c1csc(-c2ccccc2)n1 (stereo unspecified) | -15.4 |
| Cc1cc(CNC(=O)CCc2c(C)nc3cc(O)nn3c2C)no1 | -6.68 |
| Cc1nc2cc(O)nn2c(C)c1CCC(=O)NCCc1nccn1C | -10.9 |
| CC(C)Cc1cc(NC(=O)c2ccccc2F)n(C)n1 | -9.5 |
| CCOc1ccc(Cl)c(C(=O)N2CCCN(CC(N)=O)CC2)n1 | -12 |
| Cc1cnn(C2CCCN(C(=O)c3ccc4c(c3)CCC4)C2)c1 (stereo unspecified) | -6.05 |
| Cc1cnn(C2CCCN(C(=O)c3ccc(O)nc3)C2)c1 (stereo unspecified) | -12.4 |
| COC(=O)c1cccn1C1CCN(C(=O)c2ccc(C)[nH]c2=O)CC1 | -5.32 |
| COC(=O)c1cccn1C1CCN(C(=O)c2cc(F)ccc2C)CC1 | -16.9 |
| CCOc1ccc(Cl)c(C(=O)N2CCN(CC(O)CC)CC2)n1 (stereo unspecified) | -14 |
| O=C(c1ccc2[nH]c(=O)[nH]c2c1)N1CCC(Nc2cccnn2)CC1 | -9.22 |

| SMILES | cytotoxicity at 70.5 h [%] |
| --- | --- |
| Cn1nnc2cc(C(=O)N3CCC(Nc4cccnn4)CC3)ccc21 | -15.7 |
| O=C(c1ccc(-n2cnnc2)cc1)N1CCC(Nc2cccnn2)CC1 | -15.6 |
| CNC(=O)c1ccc(C(=O)N2CCCC(n3nc(C)cc3C)C2)cn1 (stereo unspecified) | -12.8 |
| Cc1oc(C(=O)O)cc1S(=O)(=O)Nc1cccc(Cl)c1F | -7.29 |
| CCOc1ccc(Cl)c(C(=O)N2CCCSCC2)n1 | -10.6 |
| COCCN1CCC(NCc2ccc(F)cc2F)C1 (stereo unspecified) | 5.5 |
| COCCN1CCC(NCc2cccc(C)c2)C1 (stereo unspecified) | -12.6 |
| COc1c(C)cnc(CN2CCC(N(C)C(=O)C3CC3)CC2)c1C | -10.5 |
| CCc1noc(CN2CCN(Cc3cccs3)CC2)n1 | -10 |
| Cc1nn(C)c(C)c1C1COCCN1C(=O)c1cc(F)ccc1F (stereo unspecified) | -16.4 |
| Cc1cc(C(=O)N2CCCC2)ccc1NCC(=O)N1CCOCC1 | -6.05 |
| COc1c(C)cnc(CN2CCC(N(C)S(C)(=O)=O)CC2)c1C | -16 |
| CCNC(=O)N(C)C1CCN(Cc2ncc(C)c(OC)c2C)CC1 | -8 |
| CC(C)(C)N1CCN(C(=O)Nc2cc(C(F)(F)F)c[nH]c2=O)CC1 | 10.7 |
| c1cc(CCN2CCN(c3ccc4nncn4n3)CC2)ccn1 | -11.9 |
| Cc1ccc(NC2CCN(C(=O)CCc3ccsc3)CC2)nn1 | -7.65 |
| CC(C)NC(=O)N(C)C(c1cccc(F)c1)c1ccccn1 (stereo unspecified) | -7.96 |
| CS(=O)(=O)CCC(=O)Nc1cc(F)ccc1OCC1CCCO1 (stereo unspecified) | 12.1 |
| O=C(O)c1c[nH]c2cc(NS(=O)(=O)c3ccc(Cl)cc3F)ccc12 | -5.42 |
| NC(=O)c1cc(C2CCCN(C(=O)CCc3cccs3)C2)n[nH]1 (stereo unspecified) | 10.7 |
| Cc1ccc(NC(=O)N2CCCC2)c(OCC2CCCO2)c1 (stereo unspecified) | -16.8 |
| Clc1ccccc1CCN1CCN(c2ccc3nncn3n2)CC1 | -16.3 |
| CCOCC(O)CN1CCN(C(=O)c2cc(C)ccc2F)CC1 (stereo unspecified) | -3.47 |
